According to patent publication US20260242320A1, “USE OF CANNABIDIOL DERIVATIVE IN PREPARATION OF MEDICAMENT” (priority 2023, published 2026):
Entries after “also recorded” stand apart in the source; their conditions may differ.

Tests used:
PKM2 tetramer / monomer = molecular target: T1, PKM2 tetramer / monomer (Mus musculus, UniProt P52480); assay: Western blot of PKM2 tetramer and monomer in LPS-treated cells; format: cell-based
T1 construct: endogenous in cells; host or cells: BV-2 cells
Source text: ImageJ was used for densitometric analysis.

[1] = molecular target: T2, nuclear PKM2 in BV-2 cells (Mus musculus, UniProt P52480); assay: Subcellular localization of PKM2; format: cell-based; settings: BV-2, LPS 200 ng/mL, 10 μM, 6 h
T2 construct: endogenous in cells; host or cells: BV-2 cells
T2 sequence (P52480 whole entry): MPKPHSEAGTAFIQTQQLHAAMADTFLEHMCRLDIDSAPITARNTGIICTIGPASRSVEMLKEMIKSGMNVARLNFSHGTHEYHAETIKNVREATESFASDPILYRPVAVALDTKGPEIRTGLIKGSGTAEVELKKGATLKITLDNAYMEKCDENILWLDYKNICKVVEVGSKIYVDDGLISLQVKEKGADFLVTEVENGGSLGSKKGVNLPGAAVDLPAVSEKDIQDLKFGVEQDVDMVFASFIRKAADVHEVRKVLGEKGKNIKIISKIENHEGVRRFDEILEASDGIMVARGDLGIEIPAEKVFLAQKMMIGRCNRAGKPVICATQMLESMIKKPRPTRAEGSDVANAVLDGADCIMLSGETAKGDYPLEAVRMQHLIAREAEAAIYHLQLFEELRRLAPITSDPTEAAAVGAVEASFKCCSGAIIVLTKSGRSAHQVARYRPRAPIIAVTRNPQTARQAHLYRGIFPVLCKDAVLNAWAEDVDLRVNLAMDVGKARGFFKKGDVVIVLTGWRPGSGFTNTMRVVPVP
Protocol: BV-2 cells were treated with 200 ng/mL LPS and 10 μM CIAC001 for 6 h. Cells were washed, harvested with ice-cold PBS, and centrifuged at 800 g for 5 min at 4° C. Cells were lysed in cytoplasmic lysis buffer (10 mM HEPES pH 7.6, 10 mM KCl, 0.5 mM […], 1.5 mM MgCl2, and 1 mM DTT) plus the protease inhibitor cocktail for 20 min on ice. A final concentration of 0.5% NP40 was added to the lysate and incubated for 2 min on ice. Lysates were centrifuged at 2000 g for 10 min at 4° C., and the supernatants were cytoplasmic lysates. Pellets were washed twice with ice-cold PBS. Nuclear pellets were lysed for 30 min on ice with nuclear lysis buffer (10 mM Tris-HCl pH 7.6, 450 mM NaCl, 2 mM MgCl2, 0.5% NP-40, and 1 mM DTT) plus a protease inhibitor cocktail. Lysates were centrifuged at 12,000 g for 10 min at 4° C., and the supernatants were nuclear lysates. The nuclear lysates were diluted with low-salt buffer (10 mM Tris-HCl pH 7.6 and 2 mM MgCl2) to a final salt concentration of 150 mM in the lysates. The total protein concentrations in the nuclear and cytoplasmic extracts were determined by the BCA assay and then normalized. The lysate supernatants were denatured in 2× Laemmli sample buffer at 100° C. for 8 min for western blotting with the corresponding antibody.

BV-2 cells = assay: Cellular ATP assay; format: cell-based; settings: 10 μM, 2 h
Protocol: BV-2 cells were seeded at a density of 5×10^5 cells per well in 6-well plates and incubated for 24 h. BV-2 cells were treated with 10 μM CIAC001 or 10 μM Compound 19b for 2 h. Cellular ATP was measured by an enhanced ATP assay kit (S0027-4, Beyotime Biotechnology Co., Ltd., Shanghai, China).

[2] = test system: 3×Tg Alzheimer's disease mice; assay: Learning and memory tests in Alzheimer's disease model mice (Morris water maze, Y-maze); format: in vivo; settings: i.p., 45 days
Source text: For Alzheimer's disease behavioral experiments (Morris water maze, open field experiment, novel object recognition, Y-maze, and elevated cross maze), triple transgenic mouse models (B6:129-Psen1tm1Mpm Tg (APPswe, tauP301L) 1Lfa/J, 3×Tg) were purchased from the Jax Laboratory in the United States. The wild-type mice (C57BL/6J, WT) were purchased from Beijing Vital River Laboratory Animal Technology Co., Ltd. After 45 days of intraperitoneal injection of CIAC001, all mice were subjected to subsequent behavioral experiments. In order to minimize the use of mice, the mice are first tested for sufficient physical strength and normal mental states. Only one behavioral experiment is conducted per day based on the following schedule: day 1: open field test; day 2-3: novel object recognition; day 3: elevated plus maze; day 4: Y-maze; day 5-13: Morris water maze. […]
Place navigation training was performed from days 1 to 5. […] The time taken for the mouse to find the platform was recorded, representing the mouse's escape latency. […]
The spatial exploration test was conducted 24 hours and 72 hours after completion of place navigation training. The test conducted at 24 hours assessed short-term memory, while the test performed at 72 hours assessed long-term memory. […]

[3] = CPP assay for rewarding effect of CIAC001; format: in vivo, mice; settings: 20 mg/kg i.p.
Protocol: Conditional place conditioning (CPP) was conducted using the classic 10-consecutive-day procedure. On days 1 and 2, each mouse was separately placed into the CPP apparatus for 15 min to habituate the apparatus. On day 3 (preconditioning), the time spent in each compartment was recorded to determine any preference for the two compartments. […] During the conditioning phase, mice were separately isolated in the compartment for 30 min on 6 consecutive days. Mice were given morphine on days 4, 6, and 8, and vehicle (5 mL/kg) was administered on days 5, 7, and 9. The postconditioning phase was carried out 24 h after the last conditioning session. Each mouse was placed in the apparatus and explored freely, and the time spent in each compartment was recorded for 15 min. The CPP score(s) was calculated using the time spent in the drug-paired compartment minus the time spent in the vehicle-paired compartment.

PKM2 = PKM2 (Mus musculus, UniProt P52480); assay: Pull-down with probes 19e/19f and western blotting
Chain of PKM2 (P52480 whole entry): as above
Protocol: The protein samples were separated by SDS-PAGE and transferred to PVDF membranes. The membranes were blocked with 5% nonfat dry milk for 1 h. The membranes were incubated with the corresponding primary antibody at 4° C. overnight and then washed with Tris-buffered saline with 0.1% Tween 20 (TBST) for 5 min each time and incubated for 1 h at room temperature with the secondary antibody-HRP conjugate. After washing with TBST, the membranes were developed using Super-Signal West Pico Chemiluminescent Substrate and visualized by a Tanon-5200 Multi. ImageJ was used for densitometric analysis.
BV-2 cells were treated with the probe Compound 19e (5 μM) or CIAC001 (20 μM) for 2 h at 37° C.; then, cells were transferred on ice and irradiated with 365 nm UV light for 30 min. Cells were washed with 3 mL PBS twice and lysed by buffer containing 250 mM HEPES (pH=7.9), 1.5 M KCl, 5 mM EDTA, 0.5% v/v NP-40, and 1% v/v protease inhibitor cocktail. The cell lysate was centrifuged at 4° C. and 12,000 g for 10 min, and the protein concentration was adjusted to 1 mg/mL by the BCA assay kit. […]
BV-2 cells were scraped with PBS; then, cells were lysed with buffer containing 250 mM HEPES (pH=7.9), 1.5 M KCl, 5 mM EDTA, 0.5% v/v NP-40, and 0.025% v/v protease inhibitor cocktail and incubated on ice for 30 min. […] The lysate was subjected to a click reaction as described above and analyzed by SDS-PAGE. […]

T1 sequence (P52480 whole entry): as above

## C=C(C)[C@@H]1CCC(C)=C[C@H]1c1c(O)cc(C(C)n2nccn2)cc1O (stereo partly drawn) [CIAC001, (1′R,2′R)-4-(1-(2H-1,2,3-Triazol-2-yl)ethyl)-5′-methyl-2′-(prop-1-en-2-yl)-1′,2′,3′,4′-tetrahydro-[1,1′-biphenyl]-2,6-diol]
PKM2 tetramer / monomer
  LPS-induced decline of the PKM2 tetramer: reversed the LPS-induced decline of the PKM2 tetramer
  LPS-induced rise of the PKM2 monomer: inhibit the LPS-induced rise of the PKM2 monomer; also recorded: inhibited LPS-induced rise of the PKM2 monomer
[1]
  LPS-induced translocation of nuclear PKM2: completely reversed; also recorded: inhibited LPS-induced translocation of nuclear PKM2
BV-2 cells
  ATP level: increase the ATP level
[2]
  learning and memory abilities of Alzheimer's disease mice: improves learning and memory abilities of Alzheimer's disease mice at a lower dose than cannabidiol
[3]
  rewarding effect (CPP after 6 consecutive days of training): did not show any effect on CPP
PKM2; high concentrations of free CIAC001
  binding of Compound 19e to PKM2 in presence of free CIAC001: competitively inhibited
PKM2; pull-down, western blot, BV-2
  binding with PKM (PKM2 vs PKM1) in situ and in vitro: directly binds with PKM2 rather than PKM1
